Measured values reported in PMC3582500 (PLoS ONE, 2013).

Columns and labels:
[1] = target: T1, Laconic (LldR from Escherichia coli between mTFP and Venus) (Escherichia coli, UniProt P0ACL7); assay: FRET ratio mTFP/Venus, purified sensor; assay type: binding; conditions: 1 mM citrate without lactate; intracellular buffer pH 7.0
T1 construct: variant 04
T1 sequence (P0ACL7 1-258): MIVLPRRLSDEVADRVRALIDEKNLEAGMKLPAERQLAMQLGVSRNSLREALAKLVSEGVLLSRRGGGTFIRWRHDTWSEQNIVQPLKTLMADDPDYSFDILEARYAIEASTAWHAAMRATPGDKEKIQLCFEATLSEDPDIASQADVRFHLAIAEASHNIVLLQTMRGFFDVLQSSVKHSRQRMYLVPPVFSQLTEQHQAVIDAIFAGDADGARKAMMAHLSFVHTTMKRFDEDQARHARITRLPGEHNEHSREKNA

[2] = target: T1, Laconic (LldR from Escherichia coli between mTFP and Venus); assay: FRET ratio mTFP/Venus, purified sensor; assay type: binding; conditions: 0.25, 1 or 10 mM pyruvate with lactate dose-response; effect by interference with lactate; intracellular buffer pH 7.0

Row | SMILES | % increase of FRET ratio at 1 mM [1] | FRET ratio mTFP/Venus, purified sensor [2]
1 | O=C(O)CC(O)(CC(=O)O)C(=O)O [citrate] | 6% | 
2 | CC(=O)C(=O)O [pyruvate] |  | at high concentrations, pyruvate blocked the effect of low lactate
